Publication doi:10.1101/2024.07.10.602890, “H105A peptide eye drops promote photoreceptor survival in murine and human models of retinal degeneration” (bioRxiv, 2024)
Ends that are not written are not given here.

Tested on: rd10 and rd10/Serpinf1−/− mice
Assay: Retinal histology (H&E), OS length and ONL thickness spider plots after peptide eye drops
Type: in vivo, mouse
Details: for outer nuclear layer (ONL) thickness vs vehicle-treated or untreated eyes / photoreceptor outer segment (OS) length vs vehicle-treated or untreated eyes / ONL thickness (spider plots): daily eye drops 1 mg/ml, P21; for outer nuclear layer (ONL) thickness vs vehicle-treated or untreated eyes / photoreceptor outer segment (OS) length vs vehicle-treated or untreated eyes: rd10 and rd10/Serpinf1−/− mice; for ONL thickness (spider plots): rd10 mice only
Procedure: Fig. 4: Effect of eyedrops of 17-mer and H105A peptides on photoreceptor morphology of rd10 and rd10/Serpinf1−/− mice (A and B) Histological Evaluation. Representative microphotographs of retina sections from rd10 (A) and rd10/Serpinf1−/− (B) mice treated with 17-mer, H105A, or R99A peptides at 1 mg/ml, or with vehicle (HBSS), compared to wild type C57Bl/6J mice. Sections were stained with hematoxylin and eosin. Spider Plot illustrate the thickness of the outer nuclear layer (ONL) in rd10 (C) and rd10/Serpinf1−/− (D) mice. Five retinas per group were analyzed and each data point represents the average ± SEM per location relative to the optic nerve (ON), analyzed using One-way ANOVA. Statistics for comparisons between H105A and vehicle is indicated by #p < 0.05, #p < 0.05, ##p < 0.01, ###p < 0.001). Statistics for comparisons between H105A and 17-mer is indicated by *p < 0.05. Scale bar = 50 μm.
Both eyes were oriented before enucleation to allow sectioning along the dorsal/ventral axis. Enucleated eyes from rd10 and rd10 × Serpinf1^−/− mice were incised in the cornea and fixed in 2.5% glutaraldehyde for 20 min and then in 10% neutral buffered formalin at 4°C for at least 48 h, followed by paraffin embedding, sectioning, and staining with either H&E or immunofluorescence procedures, as previously described ([28]). For fluorescence microscopy, antibodies, and 0.1 μg/ml DAPI were used to immunostain and nuclei counterstain the sections, respectively. Antibodies used in the study are in Table S3. Images were acquired using a ZEIS 700 confocal microscope. Fluorescence intensity was quantified using ImageJ as previously described ([14], [26]).
To generate spider plots, the ONL thickness was measured from images acquired with light microscopy of the retina sections stained with H&E or images of retina sections stained with DAPI with a dorsal-ventral orientation. The ONL thickness in the entire retina sections was measured at 5 different positions from both sides of the optic nerve (ON) using ImageJ, as described before ([28]). Alternatively, for DAPI stained images, a customed macro implemented in ImageJ was used to select only the ONL.
Figure S2. Effects of extending the timeline or administering eye drops of 17-mer[H105A] peptide every other day in rd10 mic e.
Eye drops of H105A peptide solution were administered to r d1 0 mice either daily (Fig. S2A) or every other day (Fi g. S 2D). A total of 5 µl of a solution containing H105A peptide at 1 mg/ml in HBSS were applied as eye drops. The vehicle HBSS was added as eye drops in the contralateral eyes. […]
ONL thickness in r d10 mice compared to vehicle was also observed (Fi g. S 2E), with an improvement in a- […]
efficacy of peptide H105A eye drops either daily or every other day in an extended timeline to stabilize photoreceptor morphology and light response function loss in r d10 mice, however, these were less efficacious than daily H105A peptide eye drops.
(A) Scheme showing a timeline of peptide administration via daily eye drops of H105A peptide to r d10 mice between P15 and P2 4. […]
(B) Representative microphotographs of retinal cross sections of r d1 0 treated as in Fig. S2A and stained with hematoxylin and eosin are shown. […]
(D) Scheme showing a timeline of peptide administration via eye drops of H105A peptide to rd10 mice starting at P15 every other day until P23. Assays were at P25.
(E) Representative microphotographs of retinal cross sections of r d1 0 treated as in Fig. S2D and stained […]
average ± SD per location relative to the ON per genotype by unpaired t-test. *p < 0.05, […]
(F) ERG of r d1 0 mice at P25 and treated as in Fig. S2D were performed in response to a STR. […]

Sequence | outer nuclear layer (ONL) thickness vs vehicle-treated or untreated eyes | photoreceptor outer segment (OS) length vs vehicle-treated or untreated eyes | ONL thickness (spider plots) | ONL thickness (rd10 mice, daily eye drops 5 μl of 1 mg/ml P15 until P24, assayed at P25) | ONL thickness compared to vehicle (rd10 mice, eye drops every other day P15 until P23, assayed at P25)
QRTESIIHRALYYDLIS [17-mer] | thicker outer nuclear layer | longer OS | restored ONL thickness |  | 
QRTESIIARALYYDLIS [H105A] | thicker outer nuclear layer | longer OS | to almost wild-type levels | rescue in the ONL thickness | rescue
